Biological target: T1, P2X7 receptor (Homo sapiens, UniProt Q99572)
T1 construct: host or cells: SH-SY5Y
T1 sequence (Q99572 1-595): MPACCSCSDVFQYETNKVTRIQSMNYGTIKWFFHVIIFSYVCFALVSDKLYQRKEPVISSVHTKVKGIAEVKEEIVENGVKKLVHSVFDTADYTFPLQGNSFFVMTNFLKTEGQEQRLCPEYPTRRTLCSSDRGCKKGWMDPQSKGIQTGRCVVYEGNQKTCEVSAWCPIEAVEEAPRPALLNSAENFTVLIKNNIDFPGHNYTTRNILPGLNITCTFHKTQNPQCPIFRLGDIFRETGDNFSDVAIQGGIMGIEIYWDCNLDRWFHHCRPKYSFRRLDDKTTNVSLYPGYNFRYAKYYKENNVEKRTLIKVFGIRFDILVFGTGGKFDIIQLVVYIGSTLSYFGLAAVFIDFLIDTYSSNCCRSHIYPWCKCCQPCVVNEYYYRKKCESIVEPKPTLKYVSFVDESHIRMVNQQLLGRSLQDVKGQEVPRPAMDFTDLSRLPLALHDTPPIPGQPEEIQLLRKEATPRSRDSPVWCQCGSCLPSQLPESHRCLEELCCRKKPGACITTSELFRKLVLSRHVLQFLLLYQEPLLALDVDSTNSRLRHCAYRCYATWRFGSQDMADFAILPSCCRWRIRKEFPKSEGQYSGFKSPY
Experiment: High throughput P2X7 calcium mobilization assay (Example 4A)
Assay type: cell-based
Conditions: SH-SY5Y cells; 50% decrease in fluorescence response of cells exposed to 80 μM BzATP; flag after the MS data in Examples 1-2
Experimental: A. High Throughput Assay of P2X7 Receptors
SH-SY5Y cells, ATCC Number CRL-2266, (American Type Culture Collection, Manassas, Va.) are cultured under DMEM/High medium supplemented with 10% FBS, and 10 mM HEPES (Invitrogen Corp., Carlsbad, Calif.) in 5% CO2 and at 37° C. One day prior to the experiment, cells are plated at a density of 100,000 cells/well in a 96 well black/clear TC plate (Corning® Costar®, Sigma-Aldrich Co., St. Louis, Mo.). At the beginning of the experiment, the culture medium is removed and cells are incubated with 50 μL of 2.3 μM Fluo-4 AM dye (Invitrogen Corp.) in the assay solution (5 mM KCl, 9.6 mM NaH2PO4.H2O, 25 mM HEPES, 280 mM sucrose, 5 mM glucose, and 0.5 mM CaCl2; pH is adjusted to 7.4 with NaOH) for an hour at 37° C. After one hour dye incubation, wells are rinsed once with 50 μL assay solution, and are then incubated for an hour at room temperature with 100 μL assay solution containing the test compound. The final concentration of test compound generally ranges from 1 to 2500 nM; for positive control cells, no test compound is added. After the one hour incubation, plates are transferred to a FLIPR^TETRA instrument (Molecular Devices, Sunnyvale, Calif.) for calcium mobilization analysis.
For determination of antagonist activity, 50 μL, of P2X7 agonist (2′(3)-O-(4-benzoyl-benzoyl)adenosine 5′-triphosephate (BzATP; Sigma-Aldrich) in the assay solution is transferred using the FLIPR into the plate, such that the final agonist concentration is 80 μM (about EC50). In negative control cells, 50 μL of assay solution without agonist is added at this stage. The peak fluorescence signal over a 2 minute period is then measured.
First, the average maximum relative fluorescent unit (RFU) response from the negative control wells (no agonist) is subtracted from the maximum response detected for each of the other experimental wells. Second, average maximum RFU response is calculated for the positive control wells (agonist wells).

## Cc1cnc(-n2cc(C(=O)NCC34CC5CC(CC(C5)C3)C4)c(C)n2)nc1C#N [1-(4-Cyano-5-methyl-pyrimidin-2-yl)-3-methyl-1H-pyrazole-4-carboxylic acid (adamantan-1-ylmethyl)-amide]
  IC50: ≤ 2 µM

## Nc1nc(-n2cc(C(=O)NCC34CC5CC(CC(C5)C3)C4)c(C(F)(F)F)n2)ncc1F [Compound 1, N-(Adamantan-1-ylmethyl)-1-(4-amino-5-fluoropyrimidin-2-yl)-3-(trifluoromethyl)-1H-pyrazole-4-carboxamide]
  IC50: ≤ 2 µM

## Nc1nc(-n2cc(C(=O)NCC3(c4cccnc4)CCCCC3)c(C(F)(F)F)n2)ncc1F [Compound 2, 1-(4-Amino-5-fluoropyrimidin-2-yl)-N-((1-(pyridin-3-yl)cyclohexyl)methyl)-3-(trifluoromethyl)-1H-pyrazole-4-carboxamide]
  IC50: ≤ 2 µM

## O=C(NCC12CC3CC(CC(C3)C1)C2)c1cn(-c2ncc(F)cn2)nc1C(F)F [Compound 3, 3-(Difluoromethyl)-1-(5-fluoro-pyrimidin-2-yl)-1H-pyrazole-4-carboxylic acid (adamantan-1-ylmethyl)-amide]
  IC50: ≤ 2 µM

## Cc1cnc(-n2cc(C(=O)NCC34CC5CC(CC(C5)C3)C4)c(C)n2)nc1C(=O)N1CCOCC1 [Compound 4, N-(Adamantan-1-ylmethyl)-3-methyl-1-[5-methyl-4-(morpholin-4-ylcarbonyl)pyrimidin-2-yl]-1H-pyrazole-4-carboxamide]
  IC50: ≤ 2 µM

## COc1nn(-c2ncccn2)cc1C(=O)NCC12CC3CC(CC(C3)C1)C2 [Compound 5, N-(Adamantan-1-ylmethyl)-3-methoxy-1-pyrimidin-2-yl-1H-pyrazole-4-carboxamide]
  IC50: ≤ 2 µM

## Nc1nn(-c2ncccn2)cc1C(=O)NCC12CC3CC(CC(C3)C1)C2 [Compound 6, N-(Adamantan-1-ylmethyl)-3-amino-1-pyrimidin-2-yl-1H-pyrazole-4-carboxamide]
  IC50: ≤ 2 µM

## O=C(NCC12CC3CC(CC(C3)C1)C2)c1cn(-c2ncccn2)nc1Cl [Compound 7, N-(Adamantan-1-ylmethyl)-3-chloro-1-pyrimidin-2-yl-1H-pyrazole-4-carboxamide]
  IC50: ≤ 2 µM

## O=C(NCC12CC3CC(CC(C3)C1)C2)c1cnn(-c2ncccn2)c1Cl [Compound 8, N-(Adamantan-1-ylmethyl)-5-chloro-1-pyridimin-2-yl-1H-pyrazole-4-carboxamide]
  IC50: ≤ 2 µM

## CC(C)CC(CNC(=O)c1cn(-c2ncccn2)nc1Cl)c1ccc(C(F)(F)F)cc1 (centres unmarked) [Compound 9, 3-Chloro-N-{4-methyl-2-[4-(trifluoromethyl)phenyl]pentyl}-1-pyrimidin-2-yl-1H-pyrazole-4-carboxamide]
  IC50: ≤ 2 µM

## O=C(NCC1(c2ccc(C(F)(F)F)cc2)CCCCC1)c1cn(-c2ncccn2)nc1Cl [Compound 10, 3-Chloro-1-pyrimidin-2-yl-N-({1-[4-(trifluoromethyl)phenyl]cyclohexyl}methyl)-1H-pyrazole-4-carboxamide]
  IC50: ≤ 2 µM

## O=C(NCC1(c2cccnc2)CCCCC1)c1cn(-c2ncccn2)nc1Cl [Compound 11, 3-Chloro-N-[(1-pyridin-3-ylcyclohexyl)methyl]-1-pyrimidin-2-yl-1H-pyrazole-4-carboxamide]
  IC50: ≤ 2 µM

## Cc1ccc(C2(CNC(=O)c3cn(-c4ncccn4)nc3Cl)CCCCC2)cn1 [Compound 12, 3-Chloro-N-{[1-(6-methylpyridin-3-yl)cyclohexyl]methyl}-1-pyrimidin-2-yl-1H-pyrazole-4-carboxamide]
  IC50: ≤ 2 µM

## O=C(NCC1(c2cccnc2)CCCCC1)c1cn(-c2nccn3ccnc23)nc1C(F)(F)F [Compound 14, 1-Imidazo[1,2-a]pyrazin-8-yl-3-trifluoromethyl-1H-pyrazole-4-carboxylic acid (1-pyridin-3-yl-cyclohexylmethyl)-amide]
  IC50: ≤ 2 µM

## O=C(CC12CC3CC(CC(C3)C1)C2)Nc1cn(-c2ncccn2)nc1C(F)(F)F [Compound 15, 2-Adamantan-1-yl-N-(1-pyrimidin-2-yl-3-trifluoromethyl-1H-pyrazol-4-yl)-acetamide]
  IC50: ≤ 2 µM

## Cc1nn(C)c(Cc2ccccc2)c1C(=O)NCC12CC3CC(CC(C3)C1)C2 [Compound 16, 5-Benzyl-1,3-dimethyl-1H-pyrazole-4-carboxylic acid (adamantan-1-ylmethyl)-amide]
  IC50: ≤ 2 µM

## O=C(NCC12CC3CC(CC(C3)C1)C2)c1ccnn1Cc1ccccc1 [Compound 17, N-(Adamantan-1-ylmethyl)-1-benzyl-1H-pyrazole-5-carboxamide]
  IC50: ≤ 2 µM

## Cn1nc(-c2ccccc2)cc1C(=O)NCC1(c2cccnc2)CCCCC1 [Compound 19, 1-Methyl-3-phenyl-N-[(1-pyridin-3-ylcyclohexyl)methyl]-1H-pyrazole-5-carboxamide]
  IC50: ≤ 2 µM

## Cc1ccc(C2(CNC(=O)c3cc(-c4ccccc4)nn3C)CCCCC2)cn1 [Compound 20, 1-Methyl-3-phenyl-N-{[1-(methylpyridin-3-yl)cyclohexyl]methyl}-1H-pyrazole-5-carboxamide]
  IC50: ≤ 2 µM

## Cn1nc(-c2ccccc2)cc1C(=O)NCC1(c2ccc(Cl)cc2)CCCCC1 [Compound 21, 1-Methyl-3-phenyl-N-[1-(4-chlorophenyl)cyclohexyl]methyl-1H-pyrazole-5-carboxamide]
  IC50: ≤ 2 µM

## CC(C)CC(CNC(=O)c1sc(-c2ncccn2)nc1C(F)(F)F)c1ccc(Cl)cc1 (centres unmarked) [Compound 22, 4-trifluoromethyl-2-pyrimidin-2-yl-thiazole-5-carboxylic acid[2-(4-chloro-phenyl)-4-methyl-pentyl]-amide]
  IC50: ≤ 2 µM

## O=C(NCC(c1ccc(Cl)cc1)N1CCCCC1)c1sc(-c2ncccn2)nc1C(F)(F)F (centres unmarked) [Compound 23, N-[2-(4-chlorophenyl)-2-piperidin-1-ylethyl]-2-pyrimidin-2-yl-4-(trifluoromethyl)-1,3-thiazole-5-carboxamide]
  IC50: ≤ 2 µM

## CN1CCN(C2(CNC(=O)c3sc(-c4ncccn4)nc3C(F)(F)F)CCCCCC2)CC1 [Compound 24, N-{[1-(4-methylpiperazin-1-yl)cycloheptyl]methyl}-2-pyrimidin-2-yl-4-(trifluoromethyl)-1,3-thiazole-5-carboxamide]
  IC50: ≤ 2 µM

## O=C(NCC1(c2cccnc2)CCCCC1)c1sc(N2CCCCS2(=O)=O)nc1C(F)(F)F [Compound 26, 2-(1,1-Dioxido-1,2-thiazinan-2-yl)-N-[(1-pyridin-3-ylcyclohexyl)methyl]-4-(trifluoromethyl)-1,3-thiazole-5-carboxamide]
  IC50: ≤ 2 µM

## CN(C)[C@@H]1CCN(c2nc(C(F)(F)F)c(C(=O)NCC3(c4cccnc4)CCCCC3)s2)C1 [Compound 27, 2-((R)-3-Dimethylamino-pyrrolidin-1-yl)-4-trifluoromethyl-thiazole-5-carboxylic acid (1-pyridin-3-yl-cyclohexylmethyl)-amide]
  IC50: ≤ 2 µM

## COc1ccc(-c2nc(C(F)(F)F)c(C(=O)NCC3(c4cccnc4)CCCCC3)s2)cn1 [Compound 28, 2-(6-methoxy-pyridin-3-yl)-4-trifluoromethyl-thiazole-5-carboxylic acid (1-pyridin-3-yl-cyclohexylmethyl)-amide]
  IC50: ≤ 2 µM

## Cc1nc(-c2cccnc2)sc1C(=O)NCC1(c2ccc(Cl)cc2)CCCCC1 [Compound 29, N-{[1-(4-Chlorophenyl)cyclohexyl]methyl}-4-methyl-2-pyridin-3-yl-1,3-thiazole-5-carboxamide]
  IC50: ≤ 2 µM

## Cc1nc(-c2cccnc2)sc1C(=O)NCC(CC(C)C)c1ccc(C(F)(F)F)cc1 (centres unmarked) [Compound 30]
  IC50: ≤ 2 µM

## Cc1nc(-c2cccnc2)sc1C(=O)NCC(CC(C)C)c1ccc(Cl)cc1 (centres unmarked) [Compound 31, N-[2-(4-Chlorophenyl)-4-methylpentyl}-4-methyl-2-pyridin-3-yl-1,3-thiazole-5-carboxamide]
  IC50: ≤ 2 µM
